Our source for the Km values is PMC8986608 (Journal of the American Chemical Society, 2022).

The term Km denotes the concentration of substrate that gives half-maximal velocity.

The experiment concerns the target ScoE (Streptomyces coeruleorubidus, UniProt A0A3B6UEU3). The following applies: alpha-KG, Fe(II).

As to `C[C@H](CC(=O)O)/N=C/C(=O)O` [compound 2, imine CABA], the Michaelis-Menten constant (Km) amounted to 369 ± 40 µM.
